According to paper PMC9298186, “Thiamine analogues as inhibitors of pyruvate dehydrogenase and discovery of a thiamine analogue with non-thiamine related antiplasmodial activity” (RSC Medicinal Chemistry, 2022):
Like-named read-outs stand apart in the source and are kept apart here.

Assays:
[1] = tested on: P. falciparum 3D7 (chloroquine-sensitive) strain; experiment: In vitro antiplasmodial activity assay (SYBR-Safe; malstat for 15); type: cell-based, Plasmodium falciparum; conditions: for IC50: Plasmodium falciparum; for Effect of changing folic acid concentration on parasite sensitivity: […] versus 220 μM folic acid in medium
[2] = target: T1, porcine PDHc E1 (Sus scrofa, UniProt F1SGH5+P29804); experiment: Porcine PDHc-E1 inhibition, DCPIP reduction assay; type: biochemical; conditions: for inhibition at 50 µM: read-out: Inhibition (%) of PDH E1; for inhibition at 100 µM: read-out: Inhibition (%) of PDH E1 at [TPP] = 100 μM
T1 sequence (P29804 31-390): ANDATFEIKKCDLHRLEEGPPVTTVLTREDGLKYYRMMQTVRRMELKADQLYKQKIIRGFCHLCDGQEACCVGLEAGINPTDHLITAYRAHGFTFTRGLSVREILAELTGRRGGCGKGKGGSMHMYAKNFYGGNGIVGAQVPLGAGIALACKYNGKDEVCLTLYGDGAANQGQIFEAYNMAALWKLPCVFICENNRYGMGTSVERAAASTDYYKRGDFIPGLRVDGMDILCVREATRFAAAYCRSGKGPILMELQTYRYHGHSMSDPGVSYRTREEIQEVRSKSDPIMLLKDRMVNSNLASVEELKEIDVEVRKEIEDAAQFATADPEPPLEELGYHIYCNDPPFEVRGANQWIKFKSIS
T1 sequence (F1SGH5 32-360): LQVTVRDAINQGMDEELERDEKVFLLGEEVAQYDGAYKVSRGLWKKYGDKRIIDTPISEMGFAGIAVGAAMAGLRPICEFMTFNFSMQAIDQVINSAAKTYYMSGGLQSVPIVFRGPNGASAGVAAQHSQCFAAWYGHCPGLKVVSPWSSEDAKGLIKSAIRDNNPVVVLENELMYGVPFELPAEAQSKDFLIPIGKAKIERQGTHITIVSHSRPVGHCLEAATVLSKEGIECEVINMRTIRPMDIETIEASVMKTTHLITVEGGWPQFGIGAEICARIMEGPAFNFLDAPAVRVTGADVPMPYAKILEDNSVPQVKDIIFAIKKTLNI

[3] = tested on: P. falciparum 3D7 parasites expressing PfTPK-GFP; experiment: Antiplasmodial activity against parasites overexpressing PfTPK-GFP; type: cell-based, Plasmodium falciparum; conditions: versus mock and wild-type parasites; presence or absence of thiamine (2.97 μM)
[4] = target: T1, porcine PDHc E1; experiment: Porcine PDHc-E1 inhibition, DCPIP reduction assay; type: biochemical; conditions: for IC50: [TPP] = 10 μM, mean ± SEM, read-out: IC50 PDH E1; for Ki: read-out: Ki PDH E1
[5] = tested on: human foreskin fibroblast (HFF) cells; type: cell-based; conditions: for Cytotoxicity: human, 96 h; for Selectivity index: HFF cytotoxicity versus antiplasmodial IC50
Experimental: Cytotoxicity evaluation of selected compounds
Cytotoxicity testing of selected compounds was conducted using HFF cells (human foreskin fibroblasts) as described by Howieson et al. with some modifications.10 Briefly, the HFF cells were seeded in 96- […]
Cycloheximide (10 µM; a protein synthesis inhibitor) was used as a control to indicate complete inhibition of HFF cell proliferation. Plates were […]
A sample of the supernatant
(150 µL) was then carefully aspirated from each well and discarded. The plates were then stored at - 80 °C. SYBR-Safe assay was used to measure cell proliferation. Briefly, the plates were thawed, SYBR-Safe lysis solution (150 µL) was added to each well and mixed via pipetting to ensure the HFF cells were detached from the plate and lysed. The plates were then processed as described for the […]
Fig. S7. […] Data are averaged […]
from three independent experiments, each carried out in triplicate. Error bars represent SEM and, where not visible, are smaller than the symbols. […]
10Howieson, V.M.; Tran, E.; Hoegl, A.; Fam, H.L.; Fu, J.; Sivonen, K.; Li, X.X.; Auclair, K.; Saliba, K.J. Triazole substitution of a labile amide bond […]

[6] = tested on: P. falciparum; design: method as in earlier work; conditions: ChEMBL; read-out: IC50 against P. falciparum; cited from earlier work
[7] = target: Zymomonas mobilis pyruvate decarboxylase (zmPDC); design: method as in PMID 19082157; conditions: cited from earlier work
[8] = target: pig heart pyruvate dehydrogenase; design: method as in PMID 183746; conditions: read-out: KD for TPP in pig heart pyruvate dehydrogenase; cited from earlier work
[9] = 3D7, medium with 2.97 μM thiamine, ± SEM, read-out: Antiplasmodial IC50, 2.97 μM thiamine
[10] = 3D7, medium with 297 μM thiamine, ± SEM, read-out: Antiplasmodial IC50, 297 μM thiamine
[11] = 3D7, thiamine-free medium, ± SEM, three independent experiments, read-out: Antiplasmodial IC50, thiamine free
[12] = 3D7, read-out: Antiplasmodial IC50, 2.97 μM thiamine
[13] = 3D7, read-out: Antiplasmodial IC50, 297 μM thiamine
[14] = 3D7, read-out: Antiplasmodial IC50, thiamine free

Row | SMILES | IC50 [1, 9] [µM] | IC50 [1, 10] [µM] | IC50 [1, 11] [µM] | inhibition at 50 µM [2] [%] | inhibition at 100 µM [2] [%] | also measured
1 | Cc1ncc(Cn2cc(CCOc3ccc([N+](=O)[O-])cc3)nn2)c(N)n1 [Compound 13a] | > 200 | > 200 | 168 ± 26 | 75 ± 3 | 53 ± 4 | –
2 | Cc1ncc(Cn2cc(CCOC(=O)c3ccccc3)nn2)c(N)n1 [Compound 12a] | – | – | – | 72 ± 3 | 44 ± 4 | Effect of PfTPK overexpression on parasite sensitivity [3]: no effect; IC50 [1, 12]: 136 ± 18 µM; IC50 [1, 13]: > 200 µM; IC50 [1, 14]: 128 ± 13 µM; IC50 [4]: 20 ± 3 µM; Ki [4]: 0.1 ± 0.015 µM; Cytotoxicity [5]: >200 µM
3 | COc1ncnc(NS(=O)(=O)c2ccc(N)cc2)c1OC [sulfadoxine, reference compound] | – | – | – | – | – | Effect of changing folic acid concentration on parasite sensitivity [1]: diminished
4 | Cc1ncc(Cn2cc(CCOC(=O)c3cccc([N+](=O)[O-])c3)nn2)c(N)n1 [Compound 12g] | – | – | – | 56 ± 5 | 38 ± 5 | melting point: 188 to 189 °C; IC50 [1, 12]: 139 ± 9 µM; IC50 [1, 13]: 143 ± 10 µM; IC50 [1, 14]: 135 ± 15 µM; IC50 [4]: 36 ± 4 µM; Ki [4]: 0.182 ± 0.02 µM
5 | Cc1ncc(Cn2cc(CCOC(=O)c3ccccc3Cl)nn2)c(N)n1 [Compound 12d] | 347 ± 20 | 343 ± 33 | 339 ± 31 | 61 ± 3 | 38 ± 3 | melting point: 184 to 185 °C
6 | C=CCc1cnc(C)nc1NCc1ccccc1 [Compound 16] | – | – | – | – | – | IC50 [6]: 18.5 µM
7 | Cc1ncc(C[n+]2csc(CCO[P@](=O)(O)OP(=O)(O)O)c2C)c(N)n1 [TPP, thiamine pyrophosphate] | – | – | – | – | – | Kd ([7]; read-out: KD of TPP, zmPDC): ~0.35 µM; Kd [8]: 0.05 ± 0.01 µM
8 | Cc1ncc(Cn2cc(CCOC(=O)c3ccc(Cl)cc3)nn2)c(N)n1 [Compound 12b] | – | – | – | 81 ± 2 | 56 ± 3 | IC50 [1, 12]: 125 ± 22 µM; IC50 [1, 13]: 122 ± 6 µM; IC50 [1, 14]: 107 ± 16 µM
9 | Cc1ncc(Cn2cc(CCOC(=O)c3ccc([N+](=O)[O-])cc3)nn2)c(N)n1 [Compound 12f] | > 25 | > 25 | > 25 | 55 ± 5 | 40 ± 8 | –
10 | Cc1ncc(Cn2cc(CCOP(=O)(O)OP(=O)(O)O)nn2)c(N)n1 [Compound 7] | – | – | – | – | – | Binding to zmPDC, times tighter than TPP [7]: about 10 000 times
11 | Cc1ncc(C[n+]2csc(CCO)c2C)c(O)n1 [oxythiamine, reference compound] | – | – | – | – | – | Effect of PfTPK overexpression on parasite sensitivity [3]: increased the sensitivity
12 | Cc1ncc(Cn2cc(CCOC(=O)c3ccc(Br)cc3)nn2)c(N)n1 [Compound 12e] | 85 ± 4 | 82 ± 8 | 75 ± 6 | 73 ± 2 | 46 ± 5 | –
13 | Cc1ncc(Cn2cc(CCOC(=O)c3cccc(Cl)c3)nn2)c(N)n1 [Compound 12c] | 62 ± 17 | 79 ± 5 | 63 ± 15 | 72 ± 3 | 48 ± 3 | Effect of PfTPK overexpression on parasite sensitivity [3]: no effect; Selectivity index [5]: >3.2; Cytotoxicity [5]: >200 µM
14 | Cc1ncc(Cn2cc(CCO)nn2)c(N)n1 [Compound 6, reference compound] | – | – | – | 60 ± 7 | 35 ± 6 | Binding to zmPDC, times weaker than TPP [7]: about 1000 times
15 | Cc1ncc(Cn2cc(CCO)nn2)c(NCc2ccc(Br)cc2)n1 [Compound 15] | 2.3 ± 0.1 | 2.7 ± 0.01 | 2.2 ± 0.2 | 0 | – | Effect of PfTPK overexpression on parasite sensitivity [3]: no effect; IC50 ([1]; 3D7, read-out: Antiplasmodial IC50 (text, thiamine concentration not specified)): ~2 µM; Effect of changing folic acid concentration on parasite sensitivity [1]: no difference; Inhibitory activity against porcine PDHc E1 [4]: none; Selectivity index [5]: 45; Cytotoxicity [5]: 98 ± 7 µM
